Measurements from patent US20070134261A1, “Effectors of innate immunity” (priority 2001, published 2007).
Residues, ends and D or L forms follow the SMILES beside them.

Tested on: A549 human epithelial cell line
Assay: Polynucleotide array (Human Operon) of A549 cells incubated with E. coli O111:B4 LPS with or without peptide
Type: cell-based
Settings: 50 μg/ml, 4 h
Protocol: The A549 human epithelial cell line was maintained in DMEM (Gibco) supplemented with 10% fetal bovine serum (FBS, Medicorp). […] Total RNA was isolated using RNAqueous (Ambion, Austin, Tex.). […] DNA contamination was removed with DNA-free kit, Ambion).
A “homemade” program was used to remove background. The program calculates the bottom 10% intensity for each subgrid and subtracts this for each grid.
Peptide (50 μg/ml) and LPS (0.1 μg/ml) or LPS alone was incubated with the A549 cells for 4 h and the RNA was isolated. Five μg total RNA was used to make Cy3/Cy5 labeled cDNA probes and hybridized onto Human Operon arrays (PRHU04). The intensity of unstimulated cells is shown in the third column of Table 1. The “Ratio: LPS/control” column refers to the intensity of polynucleotide expression in LPS simulated cells divided by in the intensity of unstimulated cells. The “Ratio: LPS+ID 27/control” column refers to the intensity of polynucleotide expression in cells stimulated with LPS and peptide divided by unstimulated cells.
Peptide and LPS or LPS alone was incubated with the A549 cells for 4 h and the RNA was isolated. 5 μg total RNA was used to make Cy3/Cy5 labeled cDNA probes and hybridized onto Human Operon arrays (PRHU04). The intensity of unstimulated cells is shown in the third column of Table 2. The “Ratio: LPS/control” column refers to the intensity of polynucleotide expression in LPS-simulated cells divided by in the intensity of unstimulated cells. The other columns refer to the intensity of polynucleotide expression in cells stimulated with LPS and peptide divided by unstimulated cells.

[1] = AB007856 FEM-1-like death receptor binding protein

CSCC[C@H](NC(=O)[C@H](CO)NC(=O)[C@@H](NC(=O)[C@H](CCCCN)NC(=O)[C@H](Cc1ccccc1)NC(=O)[C@H](CS)NC(=O)[C@H](CO)NC(=O)[C@H](CCCNC(=N)N)NC(=O)[C@@H](N)CCCCN)C(C)C)C(=O)N[C@@H](CCCNC(=N)N)C(=O)NCC(=O)N[C@H](C(=O)N[C@@H](CO)C(=O)N[C@@H](CCCNC(=N)N)C(=O)N[C@@H](CCCNC(=N)N)C(=O)N[C@@H](CCCNC(=N)N)C(=O)N[C@@H](CS)C(=O)N[C@@H](CCCCN)C(=O)O)C(C)C [SEQ ID NO: 27] (H-KRSCFKVSMRGVSRRRCK-OH; N-terminus and C-terminus assumed)
Ratio: LPS + ID 27/control (AB007854 growth arrest-specific 7): 2.2 | Ratio: LPS + ID 27/control [1]: 0.6 | Ratio: LPS + ID/Ctrl [1]: 0.62 | Ratio: LPS + ID/Ctrl (AB007896 putative L-type neutral amino acid transporter): 1.82 | Ratio: LPS + ID/Ctrl (AB010894 BAI1-associated protein): 1.38 | Ratio: LPS + ID 27/control (AB014569 KIAA0669 gene product): 0.2 | Ratio: LPS + ID/Ctrl (AB023198 KIAA0981 protein): 0.43 | Ratio: LPS + ID/Ctrl (AB037722 Unknown): 0.30 | Ratio: LPS + ID 27/control (AB040057 serine/threonine protein kinase MASK): 15.8 | Ratio: LPS + ID/Ctrl (AC004849 Unknown): 0.07 | Ratio: LPS + ID 27/control (AF035309 proteasome 26S subunit ATPase 5): 1.3 | Ratio: LPS + ID/Ctrl (AF095687 brain and nasopharyngeal carcinoma susceptibility protein): 0.48 | Ratio: LPS + ID 27/control (AF112219 esterase D/formylglutathione hydrolase): 1.1 | Ratio: LPS + ID 27/control (AF131838 Unknown): 1.4 | Ratio: LPS + ID 27/control (AF151047 hypothetical protein): 1.0 | Ratio: LPS + ID 27/control (AF189009 ubiquilin 2): 1.3 | Ratio: LPS + ID 27/control (AJ001403 mucin 5 subtype B tracheobronchial): 15.9 | Ratio: LPS + ID 27/control (AK000087 hypothetical protein): 1.0 | Ratio: LPS + ID 27/control (AK000264 Unknown): 0.6 | Ratio: LPS + ID/Ctrl (AK000353 cytosolic ovarian carcinoma ag 1): 1.02 | Ratio: LPS + ID 27/control (AK000353 cytosolic ovarian carcinoma antigen 1): 1.0 | Ratio: LPS + ID 27/control (AK000366 hypothetical protein): 1.0 | Ratio: LPS + ID 27/control (AK000562 hypothetical protein): 0.6 | Ratio: LPS + ID 27/control (AK000869 hypothetical protein): 2.3 | Ratio: LPS + ID/Ctrl (AK000869 hypothetical protein): 2.34 | Ratio: LPS + ID/Ctrl (AK001239 hypothetical protein): 1.27 | Ratio: LPS + ID/Ctrl (AK001440 hypothetical protein): 0.43 | Ratio: LPS + ID 27/control (AK001569 hypothetical protein): 1.2 | Ratio: LPS + ID 27/control (AK001589 hypothetical protein): 1.3 | Ratio: LPS + ID/Ctrl (AK001589 hypothetical protein): 1.26 | Ratio: LPS + ID/Ctrl (AK001904 hypothetical protein): 5.93 | Ratio: LPS + ID 27/control (AL031983 Unknown): 5.1 | Ratio: LPS + ID/Ctrl (AL031983 Unknown): 5.06 | Ratio: LPS + ID 27/control (AL050337 interferon gamma receptor 1): 1.0 | Ratio: LPS + ID 27/control (AL050348 Unknown): 1.7 | Ratio: LPS + ID 27/control (AL096739 Unknown): 0.5 | Ratio: LPS + ID/Ctrl (AL122111 hypothetical protein): 0.21 | Ratio: LPS + ID 27/control (AL137376 Unknown): 0.6 | Ratio: LPS + ID/Ctrl (AL137376 Unknown): 0.64 | Ratio: LPS + ID 27/control (AL137614 hypothetical protein): 1.0 | Ratio: LPS + ID 27/control (D14043 CD164 antigen_sialomucin): 1.0 | Ratio: LPS + ID 27/control (D14539 myeloid/lymphoid or mixed-lineage leukemia translocated to 1): 3.1 | Ratio: LPS + ID 27/control (D42085 KIAA0095 gene product): 1.2 | Ratio: LPS + ID 27/control (D87451 ring finger protein 10): 2.1 | Ratio: LPS + ID/Ctrl (D87451 ring finger protein): 2.1 | Ratio: LPS + ID 27/control (J03925 integrin_alpha M): 4.2 | Ratio: LPS + ID 27/control (J04058 electron-transfer-flavoprotein alpha polypeptide): 1.2 | Ratio: LPS + ID 27/control (J04513 fibroblast growth factor 2): 0.9 | Ratio: LPS + ID/Ctrl (J05068 transcobalamin 1): 1.78 | Ratio: LPS + ID 27/control (K02581 thymidine kinase 1 soluble): 3.5 | Ratio: LPS + ID 27/control (L04510 ADP-ribosylation factor): 1.4 | Ratio: LPS + ID/Ctrl (L04510 ADP-ribosylation factor): 1.4 | Ratio: LPS + ID/Ctrl (L19185 thioredoxin-dependent peroxide reductase 1): 0.18 | Ratio: LPS + ID 27/control (L25931 lamin B receptor): 0.7 | Ratio: LPS + ID 27/control (L42243 interferon receptor 2): 5.2 | Ratio: LPS + ID 27/control (M23379 RAS p21 protein activator): 2.8 | Ratio: LPS + ID 27/control (M32315 tumor necrosis factor receptor superfamily member 1B): 0.4 | Ratio: LPS + ID 27/control (M54915 pim-1 oncogene): 0.6 | Ratio: LPS + ID/Ctrl (M54915 pim-1 oncogene): 0.63 | Ratio: LPS + ID 27/control (M57230 interleukin 6 signal transducer): 1.0 | Ratio: LPS + ID/Ctrl (M95678 phospholipase C beta 2): 2.38 | Ratio: LPS + ID/Ctrl (NM_001148 ankyrin 2_neuronal): 0.82 | Ratio: LPS + ID 27/control (NM_001663 ADP-ribosylation factor 6): 1.7 | Ratio: LPS + ID 27/control (NM_001940 dentatorubral-pallidoluysian atrophy): 1.2 | Ratio: LPS + ID 27/control (NM_002309 leukemia inhibitory factor): 1.9 | Ratio: LPS + ID 27/control (NM_004862 LPS-induced TNF-alpha factor): 1.1 | Ratio: LPS + ID 27/control (NM_006092 caspase recruitment domain 4): 0.5 | Ratio: LPS + ID 27/control (NM_006325 RAN member RAS oncogene family): 1.4 | Ratio: LPS + ID 27/control (NM_013241 FH1/FH2 domain-containing protein): 0.6 | Ratio: LPS + ID 27/control (NM_013400 replication initiation region protein): 2.0 | Ratio: LPS + ID 27/control (NM_016216 RNA lariat debranching enzyme): 10.9 | Ratio: LPS + ID 27/control (NM_016237 anaphase-promoting complex subunit 5): 0.9 | Ratio: LPS + ID/Ctrl (NM_016382 NK cell activation inducing ligand NAIL): 0.81 | Ratio: LPS + ID 27/control (U19796 melanoma-associated antigen): 0.6 | Ratio: LPS + ID 27/control (U26648 syntaxin 5A): 1.4 | Ratio: LPS + ID 27/control (U34252 aldehyde dehydrogenase 9): 1.2 | Ratio: LPS + ID 27/control (U43083 guanine cription factor 1): 1.6 | Ratio: LPS + ID/Ctrl (U52522 partner of RAC1): 1.35 | Ratio: LPS + ID 27/control (U52960 SRB7 homolog): 0.8 | Ratio: LPS + ID 27/control (U60205 sterol-C4-methyl oxidase-like): 0.8 | Ratio: LPS + ID 27/control (U78027 galactosidase_alpha): 1.1 | Ratio: LPS + ID/Ctrl (U78166 Ric like): 0.20 | Ratio: LPS + ID 27/control (U78166 Ric-like expressed in neurons): 0.2 | Ratio: LPS + ID 27/control (U91316 cytosolic acyl coenzyme A thioester hydrolase): 1.4 | Ratio: LPS + ID 27/control (U94831 transmembrane 9 superfamily member 1): 1.5 | Ratio: LPS + ID/Ctrl (X03066 MHC class II DO beta): 4.90 | Ratio: LPS + ID/Ctrl (X06614 retinoic acid receptor_alpha): 0.77 | Ratio: LPS + ID/Ctrl (X07173 inter-alpha inhibitor H2): 0.44 | Ratio: LPS + ID 27/control (X13334 CD14 antigen): 1.1 | Ratio: LPS + ID/Ctrl (X16940 smooth muscle enteric actin γ2): 3.24 | Ratio: LPS + ID 27/control (X51688 cyclin A2): 1.0 | Ratio: LPS + ID 27/control (X56777 zona pellucida glycoprotein 3A): 1.4 | Ratio: LPS + ID 27/control (X70394 zinc finger protein 146): 1.7 | Ratio: LPS + ID 27/control (X76104 death-associated protein kinase 1): 1.8 | Ratio: LPS + ID 27/control (X76785 integration site for Epstein-Barr virus): 1.9 | Ratio: LPS + ID 27/control (X80692 mitogen-activated protein kinase 6): 1.3 | Ratio: LPS + ID 27/control (X85750 monocyte to macrophage differentiation-associated): 1.1 | Ratio: LPS + ID 27/control (X92896 Unknown): 1.5 | Ratio: LPS + ID 27/control (X92972 protein phosphatase 6 catalytic subunit): 1.1 | Ratio: LPS + ID 27/control (Z99756 Unknown): 14.0
